pIC50, pKi: −log10 of the molar value.
What was measured:
[1] = target: Nitric oxide synthase 1 (Rattus norvegicus, UniProt P29476); experiment: Inhibition of rat nNOS
[2] = target: T1, Nitric oxide synthase, inducible (Mus musculus, UniProt P29477); experiment: Inhibition of murine macrophage iNOS
T1 sequence (P29477 whole entry): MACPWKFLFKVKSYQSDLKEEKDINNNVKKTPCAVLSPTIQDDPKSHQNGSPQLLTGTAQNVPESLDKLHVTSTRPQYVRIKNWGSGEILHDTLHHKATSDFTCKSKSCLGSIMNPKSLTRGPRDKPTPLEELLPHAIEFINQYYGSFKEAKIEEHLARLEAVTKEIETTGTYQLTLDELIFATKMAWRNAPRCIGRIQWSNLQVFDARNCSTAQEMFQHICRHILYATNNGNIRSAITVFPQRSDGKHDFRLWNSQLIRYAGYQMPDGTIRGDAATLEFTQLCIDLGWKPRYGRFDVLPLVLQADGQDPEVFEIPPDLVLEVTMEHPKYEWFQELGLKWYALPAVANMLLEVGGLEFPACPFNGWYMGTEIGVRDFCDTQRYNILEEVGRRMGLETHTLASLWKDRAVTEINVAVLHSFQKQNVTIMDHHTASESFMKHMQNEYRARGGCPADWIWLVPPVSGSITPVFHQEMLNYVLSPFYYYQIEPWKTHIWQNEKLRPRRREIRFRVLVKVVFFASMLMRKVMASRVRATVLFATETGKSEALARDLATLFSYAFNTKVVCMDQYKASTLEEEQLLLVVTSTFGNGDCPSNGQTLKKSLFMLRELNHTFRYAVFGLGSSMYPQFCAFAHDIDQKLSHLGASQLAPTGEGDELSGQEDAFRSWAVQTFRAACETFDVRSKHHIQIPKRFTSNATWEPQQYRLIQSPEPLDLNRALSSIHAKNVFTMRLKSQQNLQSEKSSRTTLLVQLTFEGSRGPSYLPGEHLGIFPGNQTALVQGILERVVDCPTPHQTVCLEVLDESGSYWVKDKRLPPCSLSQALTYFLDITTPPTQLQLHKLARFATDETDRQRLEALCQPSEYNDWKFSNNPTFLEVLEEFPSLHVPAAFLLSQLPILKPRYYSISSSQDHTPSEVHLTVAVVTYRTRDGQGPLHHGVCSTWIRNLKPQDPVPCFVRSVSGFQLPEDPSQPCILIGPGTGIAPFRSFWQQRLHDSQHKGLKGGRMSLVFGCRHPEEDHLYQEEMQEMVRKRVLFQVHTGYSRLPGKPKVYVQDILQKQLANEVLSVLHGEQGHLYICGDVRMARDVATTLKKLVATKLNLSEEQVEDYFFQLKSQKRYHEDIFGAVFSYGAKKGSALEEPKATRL

[3] = target: T2, Nitric oxide synthase 3 (Bos taurus, UniProt P29473); experiment: Inhibition of bovine eNOS
T2 sequence (P29473 whole entry): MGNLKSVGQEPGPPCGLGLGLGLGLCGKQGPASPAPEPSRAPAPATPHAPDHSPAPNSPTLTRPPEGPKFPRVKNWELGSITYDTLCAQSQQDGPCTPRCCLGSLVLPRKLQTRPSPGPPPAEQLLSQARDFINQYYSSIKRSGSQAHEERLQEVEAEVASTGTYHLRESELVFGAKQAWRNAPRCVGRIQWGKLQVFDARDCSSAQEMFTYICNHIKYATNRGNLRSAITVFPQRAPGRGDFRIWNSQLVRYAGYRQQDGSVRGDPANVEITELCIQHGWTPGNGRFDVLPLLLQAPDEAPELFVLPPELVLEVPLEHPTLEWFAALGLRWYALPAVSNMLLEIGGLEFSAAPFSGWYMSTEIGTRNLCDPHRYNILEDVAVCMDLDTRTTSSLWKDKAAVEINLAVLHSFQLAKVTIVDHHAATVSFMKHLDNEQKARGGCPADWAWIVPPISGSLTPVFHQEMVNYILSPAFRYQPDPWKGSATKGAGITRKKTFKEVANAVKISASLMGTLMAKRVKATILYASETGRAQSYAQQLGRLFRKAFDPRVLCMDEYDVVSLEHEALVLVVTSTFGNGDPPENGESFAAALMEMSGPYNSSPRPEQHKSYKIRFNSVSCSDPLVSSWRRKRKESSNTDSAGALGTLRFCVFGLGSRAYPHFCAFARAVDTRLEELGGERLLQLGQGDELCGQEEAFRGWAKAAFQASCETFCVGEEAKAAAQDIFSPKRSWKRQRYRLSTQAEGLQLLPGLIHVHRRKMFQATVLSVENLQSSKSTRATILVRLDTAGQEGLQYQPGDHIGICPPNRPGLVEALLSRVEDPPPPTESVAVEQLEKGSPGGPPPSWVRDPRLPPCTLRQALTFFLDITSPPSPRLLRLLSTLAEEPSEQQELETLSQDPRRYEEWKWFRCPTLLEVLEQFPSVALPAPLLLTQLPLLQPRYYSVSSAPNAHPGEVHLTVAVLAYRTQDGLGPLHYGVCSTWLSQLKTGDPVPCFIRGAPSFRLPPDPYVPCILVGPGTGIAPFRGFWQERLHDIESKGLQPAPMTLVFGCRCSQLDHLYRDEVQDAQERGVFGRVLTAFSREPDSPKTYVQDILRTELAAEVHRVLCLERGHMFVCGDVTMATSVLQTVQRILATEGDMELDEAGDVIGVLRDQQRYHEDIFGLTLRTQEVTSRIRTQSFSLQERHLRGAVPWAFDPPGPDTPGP

[4] = Selectivity for rat nNOS over murine iNOS
[5] = Selectivity for rat nNOS over bovine eNOS

Chain of Nitric oxide synthase 1 (P29476 whole entry): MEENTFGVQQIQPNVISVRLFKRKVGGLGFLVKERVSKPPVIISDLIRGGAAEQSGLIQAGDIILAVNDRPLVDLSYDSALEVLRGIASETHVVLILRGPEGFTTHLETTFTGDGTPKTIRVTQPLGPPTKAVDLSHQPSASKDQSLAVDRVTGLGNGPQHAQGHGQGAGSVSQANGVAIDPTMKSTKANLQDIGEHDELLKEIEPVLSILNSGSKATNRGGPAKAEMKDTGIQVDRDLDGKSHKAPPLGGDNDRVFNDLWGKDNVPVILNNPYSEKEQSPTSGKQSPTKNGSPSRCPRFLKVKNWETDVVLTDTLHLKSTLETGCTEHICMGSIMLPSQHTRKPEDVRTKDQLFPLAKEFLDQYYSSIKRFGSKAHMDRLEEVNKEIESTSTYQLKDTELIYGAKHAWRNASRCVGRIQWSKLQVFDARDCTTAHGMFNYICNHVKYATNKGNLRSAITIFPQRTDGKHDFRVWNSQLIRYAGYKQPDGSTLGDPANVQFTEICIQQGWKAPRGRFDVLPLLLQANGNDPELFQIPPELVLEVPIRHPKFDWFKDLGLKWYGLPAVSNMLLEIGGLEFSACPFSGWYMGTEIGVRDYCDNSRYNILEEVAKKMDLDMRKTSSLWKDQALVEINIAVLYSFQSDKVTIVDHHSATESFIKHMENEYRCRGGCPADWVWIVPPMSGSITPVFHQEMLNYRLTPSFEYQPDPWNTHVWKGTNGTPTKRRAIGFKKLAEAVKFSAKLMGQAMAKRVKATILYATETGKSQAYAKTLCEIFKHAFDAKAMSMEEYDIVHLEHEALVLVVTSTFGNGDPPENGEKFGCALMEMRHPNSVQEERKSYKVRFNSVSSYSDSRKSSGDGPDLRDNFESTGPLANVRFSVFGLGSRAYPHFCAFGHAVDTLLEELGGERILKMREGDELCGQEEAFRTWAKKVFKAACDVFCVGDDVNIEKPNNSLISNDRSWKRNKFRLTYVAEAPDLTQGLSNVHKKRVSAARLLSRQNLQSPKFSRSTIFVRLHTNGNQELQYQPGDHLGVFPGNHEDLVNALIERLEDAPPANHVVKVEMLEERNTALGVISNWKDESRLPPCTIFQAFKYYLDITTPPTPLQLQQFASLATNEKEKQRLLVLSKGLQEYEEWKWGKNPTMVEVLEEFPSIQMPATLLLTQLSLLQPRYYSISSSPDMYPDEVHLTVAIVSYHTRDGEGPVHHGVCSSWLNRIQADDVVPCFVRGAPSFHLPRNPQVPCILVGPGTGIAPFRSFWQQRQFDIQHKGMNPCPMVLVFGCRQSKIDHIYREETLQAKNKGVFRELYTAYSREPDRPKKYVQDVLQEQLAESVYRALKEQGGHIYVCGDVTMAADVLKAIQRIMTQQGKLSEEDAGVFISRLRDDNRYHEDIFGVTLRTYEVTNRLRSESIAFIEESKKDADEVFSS

| Structure (SMILES) | pIC50 [1] | pKi [1] | pIC50 [2] | pKi [2] | pIC50 [3] | pKi [3] | Ratio Ki [4] | Ratio Ki [5] |
| --- | --- | --- | --- | --- | --- | --- | --- | --- |
| CN1C[C@H](NC(=O)[C@@H](N)CCC/N=C(\N)N[N+](=O)[O-])C[C@H]1C(N)=O | 4.13 | 5.07 | 4.08 | 4.42 | 2.77 | 3.61 | 4.5 | 29 |
| NC(=O)[C@H]1NCC[C@@H]1NC(=O)[C@@H](N)CCC/N=C(\N)N[N+](=O)[O-] | – | – | 4.90 | 5.24 | 2.86 | 3.70 | – | – |
| NC(=O)[C@@H]1C[C@@H](NC(=O)[C@@H](N)CCC/N=C(\N)N[N+](=O)[O-])CN1Cc1ccccc1 | 5.55 | 6.48 | 4.06 | 4.40 | 2.96 | 3.80 | 121 | 485 |

— ChEMBL document CHEMBL1137380, “Conformationally restricted dipeptide amides as potent and selective neuronal nitric oxide synthase inhibitors” (J Med Chem, 2006)
